The numbers were not newly measured in patent US20070036851A1, “Acid labile drug compositions” (priority 2002, published 2007), which cites them from elsewhere.

The conditions of this series: in vitro, water, pH of about 6; colour changes from clear to yellow, then brown, then purple.

Regarding `COc1ccc2[nH]c([S+]([O-])Cc3ncc(C)c(OC)c3C)nc2c1` (stereo not shown) [omeprazole], the “stability at acidic pH (drug degradation)” value is listed as “quickly cyclizes”.
